Data taken from patent US20220298493A1, “INACTIVATION PROCESS FOR VIRUSES” (priority 2019, published 2022).
Like-named read-outs stand apart in the source and are kept apart here.

System: Chikungunya virus
Settings: 200 ppm formaldehyde, 22° C.

C=O [formaldehyde]
reduction of virus titer (TCID50) (after ~9 h): 99%
reduction of virus titer (TCID50) (after ~15 h): 99.9%
